In the experiment the test system is female cockroach (periplaneta fuliginosa). The experiment can be described thus: Efficacy Test 1: Concentrate Dropping Test. It is filed as in vivo. Conditions: for Time until the subject insect stops moving (seconds) Average / Time until the subject insect stops moving (seconds) No. 1 / Time until the subject insect stops moving (seconds) No. 2 / Time until the subject insect stops moving (seconds) No. 3 / Time until the subject insect stops moving (seconds) No. 4 / Time until the subject insect stops moving (seconds) No. 5: 0.5 mL dropped between thorax and abdomen; for Time until the subject insect stops moving (seconds) Average: average of five tests; for Time until the subject insect stops moving (seconds) No. 1: repeat No. 1; for Time until the subject insect stops moving (seconds) No. 2: repeat No. 2; for Time until the subject insect stops moving (seconds) No. 3: repeat No. 3; for Time until the subject insect stops moving (seconds) No. 4: repeat No. 4; for Time until the subject insect stops moving (seconds) No. 5: repeat No. 5; for Lethality (%) after 24 hours: 0.5 mL dropped, 24 hours at 20° C., humidity 26%, five tests. The protocol:
A plastic cup (capacity of 860 ml) that is open at the top was provided, and butter was spread on the upper part of the cup interior. Then, as a subject insect, one female cockroach (periplaneta fuliginosa) was gently placed on its back at the bottom of the plastic cup.
After confirming that the subject insect is lying on its back, 0.5 mL of the subject agent in Table 1 was dropped on to the insect between the thorax and the abdomen using a pipet, and the time (seconds) until the subject insect's movement completely stopped was measured.
Subsequently, the subject insect was transferred to another plastic cup and left in a room having a temperature of 20° C. and a humidity of 26%. The number of subject insects that died after 24 hours was counted. The test was repeated five times to obtain the lethality (%) based on the average of the results.

Molecules are shown by their SMILES.

Take `FC(F)C(F)(F)C(F)(F)C(F)(F)C(F)(F)C(F)(F)F` [Comparative Example 2, 1H-Tridecafluorohexane]: the “Time until the subject insect stops moving (seconds) Average” value worked out at 56.4 s, the “Time until the subject insect stops moving (seconds) No. 1” value was 54 s, the “Time until the subject insect stops moving (seconds) No. 2” value is 50 s and the “Time until the subject insect stops moving (seconds) No. 3” value amounted to 53 s. Further, the “Time until the subject insect stops moving (seconds) No. 4” value turned out to be 62 s, the “Time until the subject insect stops moving (seconds) No. 5” value came out at 63 s and the “Lethality (%) after 24 hours” value came out at 40%.

As for `FC(F)(F)/C=C/Cl` [Example 1, Trans-1-chloro-3,3,3-trifluoropropene], the “Time until the subject insect stops moving (seconds) Average” value was found to be 1.4 s, the “Time until the subject insect stops moving (seconds) No. 1” value was 2 s, the “Time until the subject insect stops moving (seconds) No. 2” value was determined as 1 s and the “Time until the subject insect stops moving (seconds) No. 3” value came out at 1 s. The “Time until the subject insect stops moving (seconds) No. 4” value was determined as 1 s, the “Time until the subject insect stops moving (seconds) No. 5” value is 2 s and the “Lethality (%) after 24 hours” value worked out at 80%.

Source of the values: patent US10306878B2, “Insect pest control agent” (priority 2013, dated 2019).
